Earlier results, collected in patent US12397060B2, “pHLIP®-mediated intracellular delivery of immuno-stimulatory compounds” (University of Rhode Island Board of Trustees, priority 2019, dated 2025).

System: DCs, macrophages, T cells and endothelial cells sorted from B16 tumors
Details: stimulated ex vivo, expression highest in macrophages, followed by DCs

Row | SMILES | IFN-β expression upon stimulation
1 | Nc1ncnc2c1ncn2[C@@H]1O[C@@H]2COP(=O)([S-])O[C@@H]3[C@H](O)[C@@H](COP([O-])(=S)O[C@H]2[C@H]1O)O[C@H]3n1cnc2c(N)ncnc21.[Na+].[Na+] (some centres unmarked) [ML RR-S2 CDA, Dithio-(Rp, Rp)-2′,3′-CDA sodium salt] | All subsets expressed IFN-β
2 | Cc1ccc2c(=O)c3cccc(CC(=O)O)c3oc2c1C [DMXAA, 5,6-Dimethylxanthenone-4-acetic acid] | All subsets expressed IFN-β
